Results: patent publication US8575135B2 (Gilead Sciences, Inc., priority 2011, dated 2013)
Where two headings read alike, the source gives them in different places.

Experiments:
Test in all cases: microbe, parasite or virus in culture
Conditions in all cases: Hepatitis C virus
[1] = tested on: NS5A chimeric genotype 1b Con1 replicon with genotype 3a S52 strain NS5A gene; assay type: cell-based, HCV
Outline: (§1)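 Con1 1b replicons carrying 3a S52 or 4a ED43 NS5A with Pi-RLuc reporter were transiently transfected into Huh-Lunet cells; 2b MD2b-1 NS5A (M31) in JFH-1 2a backbone with RLuc-Neo, transient or stable.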

[2] = tested on: NS5A chimeric genotype 2a JFH-1 replicon with genotype 2a J6 strain NS5A gene (M31 present); assay type: cell-based, HCV
[3] = tested on: NS5A chimeric genotype 2a JFH-1 replicon with genotype 2b MD2b-1 strain NS5A gene (M31 present); assay type: cell-based, HCV
Outline: as §1

[4] = tested on: NS5A chimeric genotype 1b Con1 replicon with genotype 4a ED43 strain NS5A gene; assay type: cell-based, HCV
[5] = tested on: stable HCV 2a JFH-1 Rluc replicon cells (L31 present in NS5A); assay type: cell-based
[6] = tested on: stable HCV 1a RLuc replicon cells (genotype 1a H77 replicon); assay type: cell-based
[7] = tested on: stable HCV 1b RLuc replicon cells (genotype 1b Con1 replicon); assay type: cell-based
[8] = tested on: 1a Pi-Rluc replicon with Q30R in genotype 1a NS5A; assay type: cell-based, HCV
Outline: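 Renilla luciferase replicon assay: 1a Pi-RLuc replicon carrying NS5A Q30R, transfected transiently into cured-51 (Huh-7-derived) cells.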

| Structure (SMILES) | EC50 ([1]; read-out: 3a) | EC50 ([1]; read-out: 3a (nM)) | EC50 ([2]; read-out: 2a J6) | EC50 ([2]; read-out: 2a J6 (s) (nM)) | EC50 ([3]; read-out: 2b) | EC50 ([3]; read-out: 2b (s) (nM)) | EC50 ([4]; read-out: 4a) | EC50 ([4]; read-out: 4a (s) (nM)) | EC50 ([4]; read-out: 4a (t) (nM)) | EC50 ([5]; read-out: 2a JFH) | EC50 ([5]; read-out: 2a JFH (nM)) | EC50 ([6]; read-out: 1a) | EC50 ([6]; read-out: 1a (nM)) | EC50 ([7]; read-out: 1b (nM)) | EC50 ([2]; read-out: 2a Jb (t) (nM)) | EC50 ([3]; read-out: 2b (t) (nM)) | EC50 ([8]; read-out: 1a Q30R) | EC50 ([8]; read-out: 1a Q30R (nM)) | further results |
| --- | --- | --- | --- | --- | --- | --- | --- | --- | --- | --- | --- | --- | --- | --- | --- | --- | --- | --- | --- |
| COC(=O)N[C@H](C(=O)N1CCC[C@H]1c1ncc(-c2ccc3c(c2)COc2cc4c(ccc5nc([C@@H]6CCCN6C(=O)[C@H](NC(=O)C6CC6)c6ccccc6)[nH]c54)cc2-3)[nH]1)C(C)C [Compound 516] | < 1 nM | 0.005 nM | < 1 nM | 0.043 nM | < 1 nM | 0.013 nM | < 1 nM | 0.025 nM | 0.01 nM | < 1 nM | 0.009 nM | < 1 nM | 0.015 nM | 0.024 nM |  |  |  |  |  |
| COC[C@H]1C[C@@H](c2nc3ccc4cc5c(cc4c3[nH]2)OCc2cc(-c3cnc([C@@H]4CCCN4C(=O)[C@@H](NC(=O)OC)[C@@H](C)OC)[nH]3)ccc2-5)N(C(=O)[C@H](NC(=O)OC)c2ccccc2)C1 [Example OT, Methyl {(1R)-2-[(2S,4S)-2-(9-{2-[(2S)-1-{(2S,3R)-3-methoxy-2-[(methoxycarbonyl)amino]butanoyl}pyrrolidin-2-yl]-1H-imidazol-5-yl}-1,11-dihydroisochromeno[4′,3′:6,7]naphtho[1,2-d]imidazol-2-yl)-4-(methoxymethyl)pyrrolidin-1-yl]-2-oxo-1-phenylethyl}carbamate] | < 1 nM | 0.024 nM | < 1 nM |  | < 1 nM |  |  |  |  | < 1 nM | 0.005 nM | < 1 nM | 0.011 nM | 0.02 nM | 0.013 nM | 0.012 nM | < 1 nM | 0.041 nM |  |
| COC[C@H]1C[C@@H](c2nc3ccc4cc5c(cc4c3[nH]2)OCc2cc(-c3cnc([C@@H]4C[C@H](C(F)(F)F)CN4C(=O)[C@@H](NC(=O)OC)C(C)C)[nH]3)ccc2-5)N(C(=O)[C@H](NC(=O)OC)c2ccccc2)C1 [Example PJ, methyl {(1R)-2-[(2S,4S)-2-(9-{2-[(2S,4S)-1-{(2S)-2-[(methoxycarbonyl)amino]-3-methylbutanoyl}-4-(trifluoromethyl)pyrrolidin-2-yl]-1H-imidazol-5-yl}-1,11-dihydroisochromeno[4′,3′:6,7]naphtho[1,2-d]imidazol-2-yl)-4-(methoxymethyl)pyrrolidin-1-yl]-2-oxo-1-phenylethyl}carbamate] |  |  |  |  |  |  |  |  |  |  |  |  |  |  |  |  |  |  | EC50 ([2]; read-out: 2a J6 EC50 range): < 1 nM; EC50 ([2]; read-out: 2a Jb (t) (nM) EC50): 0.136 nM; EC50 ([3]; read-out: 2b (s) (nM) EC50): 0.854 nM; EC50 ([3]; read-out: 2b (t) (nM) EC50): 0.335 nM; EC50 ([3]; read-out: 2b EC50 range): < 1 nM; EC50 ([4]; read-out: 4a (s) (nM) EC50): 0.056 nM; EC50 ([4]; read-out: 4a EC50 range): < 1 nM; EC50 ([5]; read-out: 2a JFH (nM) EC50): 0.058 nM; EC50 ([5]; read-out: 2a JFH EC50 range): < 1 nM; EC50 ([6]; read-out: 1a (nM) EC50): 0.068 nM; EC50 ([6]; read-out: 1a EC50 range): < 1 nM; EC50 ([7]; read-out: 1b (nM) EC50): 0.088 nM |
| COC(=O)N[C@H](C(=O)N1C[C@@H](COC(F)F)C[C@H]1c1nc2ccc3cc4c(cc3c2[nH]1)OCc1cc(-c2cnc(C3CCCN3C(=O)OC(C)(C)C)[nH]2)ccc1-4)C(C)C (stereo partly drawn) [Example PQ, tert-butyl 2-[5-(2-{(2S,4S)-4-[(difluoromethoxy)methyl]-1-[N-(methoxycarbonyl)-L-valyl]pyrrolidin-2-yl}-1,11-dihydroisochromeno[4′,3′:6,7]naphtho[1,2-d]imidazol-9-yl)-1H-imidazol-2-yl]pyrrolidine-1-carboxylate] |  |  | < 1 nM | 0.155 nM | < 1 nM | 0.057 nM | < 1 nM | 0.017 nM | 0.015 nM | < 1 nM | 0.005 nM | < 1 nM | 0.014 nM | 0.014 nM | 0.025 nM | 0.032 nM | < 1 nM | 0.106 nM |  |
